Source: patent publication US6914045B2, “Glycopeptide antibiotics” (Wyeth Holdings Corporation, priority 2001, dated 2005)
Converted amounts (≈) assume the structure as drawn.

Assays:
Experiment in all cases: in vitro antibacterial evaluation, MIC by broth dilution
Format in all cases: cell-based
Staphylococcus sp. = conditions: broth dilution, 18 hours at 35° C.
Outline: (§1)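 MIC = lowest antibiotic concentration preventing visible growth; inoculum 5×10^5 CFU/mL; drug range 64-0.06 μg/mL; Muller-Hinton II […]; NCCLS M7-A2 guidance.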

Streptococcus sp. = conditions: broth dilution, 18 hours at 35° C.
Outline: as §1

Escherichia coli = conditions: 18 hours at 35° C.
Outline: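 Step 1: dilute antibiotic across 64-0.06 μg/mL in Muller-Hinton II […]. Step 2: inoculate at 5×10^5 CFU/mL.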

Enterococcus sp. = conditions: broth dilution, 18 hours at 35° C.
Outline: as §1

MIC Coagulase Negative Staphylococcus (GC 4547) (Staphylococcus sp.): 2 µg/mL (≈ 1.4 µM)
MIC Coagulase Negative Staphylococcus (GC 4548) (Staphylococcus sp.): 2 µg/mL (≈ 1.4 µM)
MIC Coagulase Negative Staphylococcus (GC 4549) (Staphylococcus sp.): 2 µg/mL (≈ 1.4 µM)
MIC Coagulase Negative Staphylococcus (GC 4551) (Staphylococcus sp.): 4 µg/mL (≈ 2.8 µM)
MIC Coagulase Negative Staphylococcus (GC 6257) (Staphylococcus sp.): 1 µg/mL (≈ 0.7 µM)
MIC Staphylococcus aureus (ATCC 29213) (Staphylococcus sp.): 0.5 µg/mL (≈ 0.35 µM)
MIC Staphylococcus aureus (GC 1131) (Staphylococcus sp.): 0.5 µg/mL (≈ 0.35 µM)
MIC Staphylococcus aureus (GC 3051) (Staphylococcus sp.): 0.5 µg/mL (≈ 0.35 µM)
MIC Staphylococcus aureus (GC 3053) (Staphylococcus sp.): 0.5 µg/mL (≈ 0.35 µM)
MIC Staphylococcus aureus (GC 4541) (Staphylococcus sp.): 0.5 µg/mL (≈ 0.35 µM)
MIC Staphylococcus aureus (GC 4542) (Staphylococcus sp.): 0.5 µg/mL (≈ 0.35 µM)
MIC Staphylococcus aureus (GC 4544) (Staphylococcus sp.): 0.5 µg/mL (≈ 0.35 µM)
MIC Staphylococcus aureus (GC 4545) (Staphylococcus sp.): 0.5 µg/mL (≈ 0.35 µM)
MIC Staphylococcus aureus-SMITH (GC 4543) (Staphylococcus sp.): 0.5 µg/mL (≈ 0.35 µM)
MIC Staphylococcus aureus (ATCC 29213) (Staphylococcus sp.; strain ATCC 29213): 0.5 µg/mL (≈ 0.35 µM)
MIC Staphylococcus aureus (GC 1131) (Staphylococcus sp.; strain GC 1131): 0.5 µg/mL (≈ 0.35 µM)
MIC Staphylococcus aureus (GC 3051) (Staphylococcus sp.; strain GC 3051): 0.5 µg/mL (≈ 0.35 µM)
MIC Staphylococcus aureus (GC 3053) (Staphylococcus sp.; strain GC 3053): 0.5 µg/mL (≈ 0.35 µM)
MIC Staphylococcus aureus (GC 4541) (Staphylococcus sp.; strain GC 4541): 0.5 µg/mL (≈ 0.35 µM)
MIC Staphylococcus aureus (GC 4542) (Staphylococcus sp.; strain GC 4542): 0.5 µg/mL (≈ 0.35 µM)
MIC Staphylococcus aureus (GC 4544) (Staphylococcus sp.; strain GC 4544): 0.5 µg/mL (≈ 0.35 µM)
MIC Staphylococcus aureus (GC 4545) (Staphylococcus sp.; strain GC 4545): 0.5 µg/mL (≈ 0.35 µM)
MIC Streptococcus agalactiae (GC 4564) (Streptococcus sp.): 1 µg/mL (≈ 0.7 µM)
MIC Streptococcus pneumoniae (ATCC 6301) (Streptococcus sp.): 0.25 µg/mL (≈ 0.175 µM)
MIC Streptococcus pneumoniae (GC 1894) (Streptococcus sp.): 0.25 µg/mL (≈ 0.175 µM)
MIC Streptococcus pneumoniae (GC 4565) (Streptococcus sp.): 0.5 µg/mL (≈ 0.35 µM)
MIC Streptococcus pyogenes (GC 4563) (Streptococcus sp.): 0.12 µg/mL (≈ 0.084 µM)
MIC Streptococcus pneumoniae (ATCC 6301) (Streptococcus sp.; strain ATCC 6301): 0.25 µg/mL (≈ 0.175 µM)
MIC Streptococcus pneumoniae (GC 1894) (Streptococcus sp.; strain GC 1894): 0.25 µg/mL (≈ 0.175 µM)
MIC Streptococcus pyogenes (GC 4563) (Streptococcus sp.; strain GC 4563): 0.12 µg/mL (≈ 0.084 µM)
MIC Streptococcus agalactiae (GC 4564) (Streptococcus sp.; strain GC 4564): 1 µg/mL (≈ 0.7 µM)
MIC Streptococcus pneumoniae (GC 4565) (Streptococcus sp.; strain GC 4565): 0.5 µg/mL (≈ 0.35 µM)
MIC Escherichia coli (ATCC 25922) (Escherichia coli; Escherichia coli (ATCC 25922)): >0.5 µg/mL
MIC Escherichia coli (GC 4559) (Escherichia coli; Escherichia coli (GC 4559)): >0.5 µg/mL
MIC Escherichia coli (GC 4560) (Escherichia coli; Escherichia coli (GC 4560)): 0.5 µg/mL (≈ 0.35 µM)
MIC Enterococcus avium (GC 4558) (Enterococcus sp.; Enterococcus avium (GC 4558)): 0.5 µg/mL (≈ 0.35 µM)
MIC Enterococcus faecalis (ATCC 29212) (Enterococcus sp.; Enterococcus faecalis (ATCC 29212)): 0.5 µg/mL (≈ 0.35 µM)
MIC Enterococcus faecalis (GC 4553) (Enterococcus sp.; Enterococcus faecalis (GC 4553)): 0.5 µg/mL (≈ 0.35 µM)
MIC Enterococcus faecalis (GC 4554) (Enterococcus sp.; Enterococcus faecalis (GC 4554)): >0.5 µg/mL
MIC Enterococcus faecalis (GC 6189) (Enterococcus sp.; Enterococcus faecalis (GC 6189)): 0.5 µg/mL (≈ 0.35 µM)
MIC Enterococcus faecium (GC 2243) (Enterococcus sp.; Enterococcus faecium (GC 2243)): 16 µg/mL (≈ 11.2 µM)
MIC Enterococcus faecium (GC 4556) (Enterococcus sp.; Enterococcus faecium (GC 4556)): 16 µg/mL (≈ 11.2 µM)
MIC Enterococcus faecium (GC 4557) (Enterococcus sp.; Enterococcus faecium (GC 4557)): 2 µg/mL (≈ 1.4 µM)
MIC Enterococcus faecalis (GC 2242) (Enterococcus sp.): 0.5 µg/mL (≈ 0.35 µM)
MIC Enterococcus faecalis (GC 2691) (Enterococcus sp.): 0.5 µg/mL (≈ 0.35 µM)
MIC Enterococcus faecalis (GC 3059) (Enterococcus sp.): 0.5 µg/mL (≈ 0.35 µM)
MIC Enterococcus faecalis (GC 4552) (Enterococcus sp.): >0.5 µg/mL
MIC Enterococcus faecalis (ATCC 29212) (Enterococcus sp.; strain ATCC 29212): 0.5 µg/mL (≈ 0.35 µM)
MIC Enterococcus faecalis (GC 2242) (Enterococcus sp.; strain GC 2242): 0.5 µg/mL (≈ 0.35 µM)
MIC Enterococcus faecium (GC 2243) (Enterococcus sp.; strain GC 2243): 16 µg/mL (≈ 11.2 µM)
MIC Enterococcus faecalis (GC 2691) (Enterococcus sp.; strain GC 2691): 0.5 µg/mL (≈ 0.35 µM)
MIC Enterococcus faecalis (GC 3059) (Enterococcus sp.; strain GC 3059): 0.5 µg/mL (≈ 0.35 µM)
MIC Enterococcus faecalis (GC 4552) (Enterococcus sp.; strain GC 4552): >0.5 µg/mL
MIC Enterococcus faecalis (GC 4553) (Enterococcus sp.; strain GC 4553): 0.5 µg/mL (≈ 0.35 µM)
MIC Enterococcus faecalis (GC 4554) (Enterococcus sp.; strain GC 4554): >0.5 µg/mL
MIC Enterococcus faecium (GC 4556) (Enterococcus sp.; strain GC 4556): 16 µg/mL (≈ 11.2 µM)
MIC Enterococcus faecium (GC 4557) (Enterococcus sp.; strain GC 4557): 2 µg/mL (≈ 1.4 µM)
MIC Enterococcus avium (GC 4558) (Enterococcus sp.; strain GC 4558): 0.5 µg/mL (≈ 0.35 µM)
MIC Enterococcus faecalis (GC 6189) (Enterococcus sp.; strain GC 6189): 0.5 µg/mL (≈ 0.35 µM)
SMILES: CC(c1ccccc1)C1NC(=O)CNC(=O)C(CO)NC(=O)C(C(O)C2CNC(=N)N2C2OC(CO)C(O)C(O)C2O)NC(=O)C(C(O)C2CNC(=N)N2)NC(=O)C(Cc2ccc(OC3OC(CO)C(OC4OC(COC(=O)NCc5ccccc5)C(O)C(O)C4O)C(O)C3O)cc2)NC1=O (stereo not drawn) [Example 257b]
MIC Staphylococcus haemolyticus (GC 4546) (Staphylococcus sp.): 2 µg/mL (≈ 1.4 µM)
